# Test results from US9120779B2, “Inhibitors of HCV NS5A” (PRESIDIO PHARMACEUTICALS, INC., priority 2008, dated 2015).
# Test system: HCV genotype 1b replicon in Huh 7 cells
# Test: HCV replicon assay (luciferase readout, 1b_Huh-Luc/Neo-ET cell line)
# Type: cell-based
# Settings: Hepatitis C virus, Huh-7, 72 h, read-out: Inhibition of HCV genotype 1b, Table 3, 72 h incubation
# Procedure, shortened: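 Huh 7 cells carrying a bicistronic genotype 1b luciferase replicon treated with compound in triplicate for 72 h. Replicon level read as luciferase activity (Bright-Glo), expressed as % of control; EC50 from a sigmoidal Hill-slope fit, repeated several times.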
row,SMILES,EC50
1,C[C@H](NC(=O)[C@H](NC(=O)OC(C)(C)C)c1ccccc1)c1ncc(C2CCN(c3c(F)cc(-c4cnc([C@@H]5CCCN5C(=O)[C@H](NC(=O)OC(C)(C)C)c5ccccc5)[nH]4)cc3F)CC2)[nH]1 [compound 513],< 1 nM
2,C[C@H](NC(=O)[C@H](NC(=O)C1CC1)c1ccccc1)c1ncc(C2CCN(c3c(F)cc(-c4cnc([C@@H]5CCCN5C(=O)[C@H](NC(=O)C5CC5)c5ccccc5)[nH]4)cc3F)CC2)[nH]1 [compound 514],< 1 nM
3,COC(=O)N[C@H](C(=O)N[C@H](c1ncc(C2CCN(c3c(F)cc(-c4cnc([C@@H]5CCCN5C(=O)[C@@H](NC(=O)OC)C(C)C)[nH]4)cc3F)CC2)[nH]1)C(C)C)C(C)C [compound 515],< 1 nM
4,COC(=O)N[C@@H](C(=O)N[C@@H](C)c1ncc(C2CCN(c3c(F)cc(-c4cnc([C@@H]5CCCN5C(=O)[C@H](NC(=O)OC)c5ccccc5)[nH]4)cc3F)CC2)[nH]1)c1ccccc1 [compound 517],< 1 nM
5,COC(=O)N[C@@H](C(=O)N[C@@H](C)c1ncc(-c2cc(F)c(N3CCC(c4cnc([C@@H]5CCCN5C(=O)[C@H](NC(=O)OC)c5ccccc5)[nH]4)CC3)c(F)c2)[nH]1)c1ccccc1 [compound 518],< 1 nM
6,COC(=O)N[C@H](C(=O)N[C@@H](C)c1ncc(-c2cc(F)c(N3CCC(c4cnc([C@@H]5CCCN5C(=O)[C@@H](NC(=O)OC)C(C)C)[nH]4)CC3)c(F)c2)[nH]1)C(C)C [compound 519],< 1 nM
7,C[C@H](NC(=O)[C@H](NC(=O)OC(C)(C)C)c1ccccc1)c1ncc(-c2cc(F)c(N3CCC(c4cnc([C@@H]5CCCN5C(=O)[C@H](NC(=O)OC(C)(C)C)c5ccccc5)[nH]4)CC3)c(F)c2)[nH]1 [compound 520],< 1 nM

# Same assay, conditions: Hepatitis C virus, Huh-7, 72 h, read-out: Inhibition of HCV genotype 1b, Table 4, 72 h incubation
row,SMILES,EC50
1,COC(=O)N[C@@H](C(=O)N1CCC[C@H]1c1nc2ccc(-c3ccc(-c4ccc5nc([C@@H]6CCCN6C(=O)[C@H](NC(=O)OC)c6ccccc6)[nH]c5c4)cc3)cc2[nH]1)c1ccccc1 [compound 550],< 1 nM
2,COC(=O)N[C@H](C(=O)N1CCC[C@H]1c1nc2ccc(-c3ccc(-c4ccc5nc([C@@H]6CCCN6C(=O)[C@@H](NC(=O)OC)C(C)C)[nH]c5c4)cc3)cc2[nH]1)C(C)C [compound 551],< 1 nM
3,CC(C)[C@H](NC(=O)N1CCCC1)C(=O)N1CCC[C@H]1c1nc2ccc(-c3ccc(-c4ccc5nc([C@@H]6CCCN6C(=O)[C@@H](NC(=O)N6CCCC6)C(C)C)[nH]c5c4)cc3)cc2[nH]1 [compound 552],> 1000 nM
4,CC(C)[C@H](NC(=O)N1CC[C@H](O)C1)C(=O)N1CCC[C@H]1c1nc2ccc(-c3ccc(-c4ccc5nc([C@@H]6CCCN6C(=O)[C@@H](NC(=O)N6CC[C@H](O)C6)C(C)C)[nH]c5c4)cc3)cc2[nH]1 [compound 553],> 1000 nM
5,CC(C)[C@H](NC(=O)OC(C)(C)C)C(=O)N1CCC[C@H]1c1nc2ccc(-c3ccc(-c4ccc5nc([C@@H]6CCCN6C(=O)[C@@H](NC(=O)OC(C)(C)C)C(C)C)[nH]c5c4)cc3)cc2[nH]1 [compound 554],> 1000 nM
6,COC(=O)N[C@H](C(=O)N1CCC[C@H]1c1nc2ccc(-c3ccc(-c4ccc5nc([C@@H]6CCCN6C(=O)[C@@H](NC(=O)OC)[C@@H](C)OC)[nH]c5c4)cc3)cc2[nH]1)[C@@H](C)OC [compound 555],< 1 nM
7,COC(=O)N[C@H](C(=O)N1CCC[C@H]1c1nc2ccc(-c3ccc(-c4ccc5nc([C@@H]6CCCN6C(=O)[C@@H](NC(=O)OC)C(C)C)[nH]c5c4)nc3)cc2[nH]1)C(C)C [compound 556],< 1 nM
8,COC(=O)N[C@H](C(=O)N1CCC[C@H]1c1nc2ccc(-c3ccc(-c4ccc5nc([C@@H]6CCCN6C(=O)[C@@H](NC(=O)OC)[C@@H](C)O)[nH]c5c4)cc3)cc2[nH]1)[C@@H](C)O [compound 557],< 1 nM

# Same assay, conditions: Hepatitis C virus, Huh-7, 72 h, read-out: Inhibition of HCV genotype 1b, Table 5, 72 h incubation
row,SMILES,EC50
1,CC(C)(C)OC(=O)N[C@@H](C(=O)N1CCC[C@H]1CNC(=O)C12CCC(c3ccc(-c4cnc([C@@H]5CCCN5C(=O)[C@H](NC(=O)OC(C)(C)C)c5ccccc5)[nH]4)cc3)(CC1)CC2)c1ccccc1 [compound 600],1 to 9.9 nM
2,CC(C)(C)OC(=O)N[C@H](C(=O)N1CCC[C@H]1c1ncc(-c2ccc(C34CCC(c5cnc([C@@H]6CCCN6C(=O)[C@H](NC(=O)OC(C)(C)C)c6ccccc6)[nH]5)(CC3)CC4)cc2)[nH]1)c1ccccc1 [compound 601],< 1 nM
3,O=C(N[C@@H](C(=O)N1CCC[C@H]1CNC(=O)C12CCC(c3ccc(-c4cnc([C@@H]5CCCN5C(=O)[C@H](NC(=O)C5CC5)c5ccccc5)[nH]4)cc3)(CC1)CC2)c1ccccc1)C1CC1 [compound 602],< 1 nM
4,O=C(N[C@@H](C(=O)N1CCC[C@H]1CNC(=O)C12CCC(c3ccc(-c4cnc([C@@H]5CCCN5C(=O)[C@H](NC(=O)N5CCOCC5)c5ccccc5)[nH]4)cc3)(CC1)CC2)c1ccccc1)N1CCOCC1 [compound 603],1 to 9.9 nM
5,COC(=O)N[C@@H](C(=O)N1CCC[C@H]1CNC(=O)C12CCC(c3ccc(-c4cnc([C@@H]5CCCN5C(=O)[C@H](NC(=O)OC)c5ccccc5)[nH]4)cc3)(CC1)CC2)c1ccccc1 [compound 604],< 1 nM
6,CC(C)(C)OC(=O)N[C@@H](C(=O)N1CCC[C@H]1c1ncc(-c2ccc(C34CCC(c5cnc([C@@H]6CCCN6C(=O)[C@H](NC(=O)OC(C)(C)C)c6ccccc6)o5)(CC3)CC4)cc2)[nH]1)c1ccccc1 [compound 605],1 to 9.9 nM
7,COC(=O)N[C@@H](C(=O)N1CCC[C@H]1c1ncc(-c2ccc(C34CCC(c5cnc([C@@H]6CCCN6C(=O)[C@H](NC(=O)OC)c6ccccc6)[nH]5)(CC3)CC4)cc2)[nH]1)c1ccccc1 [compound 606],< 1 nM
8,O=C(N[C@@H](C(=O)N1CCC[C@H]1c1ncc(-c2ccc(C34CCC(c5cnc([C@@H]6CCCN6C(=O)[C@H](NC(=O)C6CC6)c6ccccc6)[nH]5)(CC3)CC4)cc2)[nH]1)c1ccccc1)C1CC1 [compound 607],< 1 nM
9,COC(=O)N[C@H](C(=O)N1CCC[C@H]1c1ncc(C23CCC(c4ccc(-c5cnc([C@@H]6CCCN6C(=O)[C@H](NC(=O)OC)c6ccccc6)[nH]5)cc4)(CC2)CC3)[nH]1)[C@@H](C)OC [compound 609],< 1 nM
10,COC(=O)N[C@H](Cc1ccccc1)C(=O)N1CCC[C@H]1c1ncc(C23CCC(c4ccc(-c5cnc([C@@H]6CCCN6C(=O)[C@H](NC(=O)OC)c6ccccc6)[nH]5)cc4)(CC2)CC3)[nH]1 [compound 610],< 1 nM
11,COC(=O)N[C@@H](C(=O)N1CCC[C@H]1c1ncc(-c2ccc(C34CCC(c5cnc([C@@H]6CCCN6C(=O)[C@@H](c6ccccc6)N6CCOCC6)[nH]5)(CC3)CC4)cc2)[nH]1)c1ccccc1 [compound 611],< 1 nM
12,COC(=O)N[C@H](C(=O)N1CCC[C@H]1c1ncc(-c2ccc(C34CCC(c5cnc([C@@H]6CCCN6C(=O)[C@@H](NC(=O)OC)[C@@H](C)OC)[nH]5)(CC3)CC4)cc2)[nH]1)[C@@H](C)OC [compound 612],< 1 nM
13,COC(=O)N[C@@H](C(=O)N1CCC[C@H]1c1ncc(-c2ccc(C34CCC(c5cnc([C@@H]6CCCN6C(=O)[C@H](OC)c6ccccc6)[nH]5)(CC3)CC4)cc2)[nH]1)c1ccccc1 [compound 615],< 1 nM
14,COC(=O)N[C@@H](C(=O)N1CCC[C@H]1c1ncc(-c2ccc(C34CCC(c5cnc([C@@H]6CCCN6C(=O)[C@H](NC(=O)OC)C(C)C)[nH]5)(CC3)CC4)cc2)[nH]1)c1ccccc1 [compound 616],< 1 nM
15,COC(=O)N[C@H](C(=O)N1CCC[C@H]1c1ncc(C23CCC(c4ccc(-c5cnc([C@@H]6CCCN6C(=O)[C@H](NC(=O)OC)c6ccccc6)[nH]5)cc4)(CC2)CC3)[nH]1)C(C)C [compound 617],< 1 nM
